# Data: patent publication US20240336660A1 (priority 2021, published 2024)
# *: point of attachment. Decanoyl = CCCCCCCCCC(=O)*; CH2Cl = ClC*
# How the values were obtained:
# Htet1/SD614G cells = format: cell-based, human; settings: for effect on trafficking of Spike to lysosomes: 20 hours, 50 μM dynasore, 20 μM pitstop2, 1 μM nocodazole, 43 nM bafilomycin
# [1] = test system: doxycycline-induced Htet1/SW1 cells; format: cell-based, human
Molecule,effect on trafficking of Spike to lysosomes (Htet1/SD614G cells),further results
O=C(N/N=C/c1ccc(O)c(O)c1)c1cc2ccccc2cc1O [dynasore],Neither had a noticeable impact on the trafficking of Spike to lysosomes,–
COC(=O)Nc1nc2ccc(C(=O)c3cccs3)cc2[nH]1 [nocodazole],had no effect,–
O=C1NC(=NS(=O)(=O)c2cccc3ccccc23)S/C1=C\c1ccc(Br)cc1 [pitstop2],Neither had a noticeable impact on the trafficking of Spike to lysosomes,–
Decanoyl-RVKR-CH2Cl,–,effect on Spike cell surface expression and furin-mediated processing [1]: reduced Spike's cell surface expression and furin-mediated processing
bafilomycin,"redirected Spike into the Golgi and plasma membranes, preventing its accumulation in lysosomes",–
vacuolin-1,–,Spike localization after vacuolin-1 treatment (Htet1/SD614G cells; vacuolin-1 10 μg/ml for three hours): Spike localization to lysosome membranes was also apparent
